Source: ChEMBL document CHEMBL1155061, “Conjugates of gonadotropin releasing hormone (GnRH) with carminic acid: Synthesis, generation of reactive oxygen species (ROS) and biological evaluation” (Bioorg Med Chem, 2008)
Calls of active or inactive are those of the source. No cut-off for these calls is given here.

Assays:
[1] = Stimulation of ERK phosphorylation in alphaT3-1 cells; type: cell-based
Pituitary gland cell = assay: Effect on LH release in rat pituitary cells after 4 hrs; type: functional, cell-based

Compound | Activity [1] | Activity (Pituitary gland cell)
Cc1c(C(=O)NCCC(=O)NCCCC[C@@H](NC(=O)[C@H](Cc2ccc(O)cc2)NC(=O)[C@H](CO)NC(=O)[C@H](Cc2c[nH]c3ccccc23)NC(=O)[C@H](Cc2cnc[nH]2)NC(=O)[C@@H]2CCC(=O)N2)C(=O)N[C@@H](CC(C)C)C(=O)N[C@@H](CCCNC(=N)N)C(=O)N2CCC[C@H]2C(=O)NCC(N)=O)c(O)cc2c1C(=O)c1c(O)c([C@H]3O[C@H](CO)[C@@H](O)[C@H](O)[C@H]3O)c(O)c(O)c1C2=O | Active | Active
CC(C)C[C@H](NC(=O)[C@@H](CCCCN)NC(=O)[C@H](Cc1ccc(O)cc1)NC(=O)[C@H](CO)NC(=O)[C@H](Cc1c[nH]c2ccccc12)NC(=O)[C@H](Cc1cnc[nH]1)NC(=O)[C@@H]1CCC(=O)N1)C(=O)N[C@@H](CCCNC(=N)N)C(=O)N1CCC[C@H]1C(=O)NCC(N)=O | Active | Active
